Assay results reported in patent publication EP4707280A1, “1,4-CINEOLE DERIVATIVE AND INTERMEDIATE THEREOF, HERBICIDE CONTAINING SAID DERIVATIVE AS ACTIVE INGREDIENT, METHOD FOR USING HERBICIDE, AND METHOD FOR PREPARING AGROCHEMICAL COMPOSITION” (HOKKO CHEMICAL INDUSTRY CO., LTD., priority 2023, dated 2024).

How the values were obtained:
Assay type in all cases: in vivo
[1] = test system: Echinochloa crus-galli var. formosensis; test: Test Example 1: herbicidal effect test by soil application in paddy rice; details: Echinochloa crus-galli, soil, 336 h; 120 g active ingredient per 10 ares; applied immediately after sowing, flooded pots; 14 days after application; read-out: weed inhibition rate
Summary of the method: (§1)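 Weeds sown 0–1 cm deep (30 seeds each) into fertilized, puddled paddy soil in Wagner pots. Pots are flooded immediately, water held near 3 cm, and the diluted emulsifiable concentrate is dripped in at once, delivering 120 g active ingredient per 10 ares under glass-greenhouse management.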

Scirpus juncoides [2] = test: as above; details: Schoenoplectiella juncoides, soil, 336 h; 120 g active ingredient per 10 ares; applied immediately after sowing, flooded pots; 14 days after application; read-out: weed inhibition rate
Summary of the method: as §1

[3] = test system: Echinochloa crus-galli var. formosensis; test: Test Example 2: herbicidal effect test by application during growth period of paddy rice; details: Echinochloa crus-galli; 120 g per 10 ares; applied seven days after sowing, flooded pots; 14 days after application; read-out: weed inhibition rate
Summary of the method: (§2)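 Steps: puddle fertilized paddy soil; sow 30 seeds of each weed at 0–1 cm; flood to roughly 3 cm and keep in a glasshouse; at day 7 drop in diluted emulsifiable concentrate (120 g a.i. per 10 ares); score inhibition (%) 14 days later, two replicates.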

Monochoria vaginalis [4] = test: as above; details: Pontederia vaginalis; 120 g per 10 ares; applied seven days after sowing, flooded pots; 14 days after application; read-out: weed inhibition rate
Summary of the method: as §2

Scirpus juncoides [5] = test: as above; details: Schoenoplectiella juncoides; 120 g per 10 ares; applied seven days after sowing, flooded pots; 14 days after application; read-out: weed inhibition rate
Summary of the method: as §2

Chenopodium album = test: Test Example 3: herbicidal effect test by soil application in upland field; details: 120 g per 10 ares, sprayed one day after sowing, 14 days after application, read-out: weed inhibition rate
Summary of the method: (§3)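 Pre-emergence test: seeds mixed into top 1 cm of alluvial loam upland soil in pots; emulsifiable concentrate diluted in water sprayed on soil one day after sowing at 100 L/10 a, 120 g a.i./10 a. Weed inhibition rate (%) scored at 14 days, in duplicate.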

[6] = test system: Echinochloa crus-galli var. formosensis; test: Test Example 6: herbicidal effect test by application during growth period of paddy rice (low dose); details: Echinochloa crus-galli; 7.5 g per 10 ares; applied seven days after sowing, flooded pots; 14 days after application; read-out: weed inhibition rate
Summary of the method: (§4)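 Low-dose water application, 7.5 g a.i. per 10 ares, given by dropper into flooded pots (about 3 cm depth) 7 days after sowing of 30 weed seeds each at 0–1 cm. Evaluation of inhibition (%) took place 14 days later, duplicate per rate.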

Monochoria vaginalis [7] = test: as above; details: Pontederia vaginalis; 7.5 g per 10 ares; applied seven days after sowing, flooded pots; 14 days after application; read-out: weed inhibition rate
Summary of the method: as §4

Scirpus juncoides [8] = test: as above; details: Schoenoplectiella juncoides; 7.5 g per 10 ares; applied seven days after sowing, flooded pots; 14 days after application; read-out: weed inhibition rate
Summary of the method: as §4

Digitaria ciliaris = test: Test Example 7: herbicidal effect test by soil application in upland field (low dose); details: Digitaria ciliaris, 7.5 g per 10 ares, sprayed one day after sowing, 14 days after application, read-out: weed inhibition rate
Summary of the method: (§5)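 Upland soil (alluvial loam) pots, seeds mixed into top 1 cm layer → EC formulation diluted with water, sprayed onto soil 1 d post-sowing, 100 L/10 a → 7.5 g a.i./10 a → inhibition (%) scored at 14 d, n=2.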

Echinochloa crus-galli = test: as above; details: Echinochloa crus-galli, 7.5 g per 10 ares, sprayed one day after sowing, 14 days after application, read-out: weed inhibition rate
Summary of the method: as §5

Amaranthus viridis = test: Test Example 3: herbicidal effect test by soil application in upland field; details: Amaranthus viridis, 120 g per 10 ares, sprayed one day after sowing, 14 days after application, read-out: weed inhibition rate
Summary of the method: as §3

Cc1ccccc1CO[C@@H]1C[C@]2(C(C)C)O[C@@]1(C)CC2=O [2-3, (1R,4S,5R)-1-isopropyl-4-methyl-5-((2-methylbenzyl)oxy)-7-oxabicyclo[2.2.1]heptan-2-one]
≥ 80%: pest or weed control at 1200 g/ha [1] | pest or weed control at 1200 g/ha (Scirpus juncoides [2]) | inhibition at 1200 g/ha [3] | inhibition at 1200 g/ha (Monochoria vaginalis [4]) | inhibition at 1200 g/ha (Scirpus juncoides [5]) | inhibition at 1200 g/ha (Chenopodium album) | inhibition at 75 g/ha [6] | inhibition at 75 g/ha (Monochoria vaginalis [7]) | inhibition at 75 g/ha (Scirpus juncoides [8]) | inhibition at 75 g/ha (Digitaria ciliaris) | inhibition at 75 g/ha (Echinochloa crus-galli)

CC(C)[C@]12C[C@@H](OCc3ccccc3F)[C@](C)(C[C@@H]1O)O2 [1-30, (1R,2S,4S,5R)-5-((2-fluorobenzyl)oxy)-1-isopropyl-4-methyl-7-oxabicyclo[2.2.1]heptan-2-ol]
≥ 80%: pest or weed control at 1200 g/ha [1] | pest or weed control at 1200 g/ha (Scirpus juncoides [2]) | inhibition at 1200 g/ha [3] | inhibition at 1200 g/ha (Monochoria vaginalis [4]) | inhibition at 1200 g/ha (Scirpus juncoides [5]) | inhibition at 1200 g/ha (Amaranthus viridis) | inhibition at 1200 g/ha (Chenopodium album) | inhibition at 75 g/ha [6] | inhibition at 75 g/ha (Scirpus juncoides [8]) | inhibition at 75 g/ha (Digitaria ciliaris) | inhibition at 75 g/ha (Echinochloa crus-galli)

CC(C)[C@]12C[C@@H](OCc3ccccc3Cl)[C@](C)(CC1=O)O2 [2-11, (1R,4S,5R)-5-((2-chlorobenzyl)oxy)-1-isopropyl-4-methyl-7-oxabicyclo[2.2.1]heptan-2-one]
≥ 80%: pest or weed control at 1200 g/ha [1] | pest or weed control at 1200 g/ha (Scirpus juncoides [2]) | inhibition at 1200 g/ha [3] | inhibition at 1200 g/ha (Monochoria vaginalis [4]) | inhibition at 1200 g/ha (Scirpus juncoides [5]) | inhibition at 1200 g/ha (Amaranthus viridis) | inhibition at 1200 g/ha (Chenopodium album) | inhibition at 75 g/ha [6] | inhibition at 75 g/ha (Digitaria ciliaris) | inhibition at 75 g/ha (Echinochloa crus-galli)

Cc1ccccc1CO[C@@H]1C[C@]2(C(C)C)O[C@@]1(C)C[C@@H]2F [1-2, (1R,2S,4S,5R)-2-fluoro-1-isopropyl-4-methyl-5-((2-methylbenzyl)oxy)-7-oxabicyclo[2.2.1]heptane]
≥ 80%: pest or weed control at 1200 g/ha [1] | pest or weed control at 1200 g/ha (Scirpus juncoides [2]) | inhibition at 1200 g/ha [3] | inhibition at 1200 g/ha (Monochoria vaginalis [4]) | inhibition at 1200 g/ha (Scirpus juncoides [5]) | inhibition at 1200 g/ha (Chenopodium album) | inhibition at 75 g/ha [6] | inhibition at 75 g/ha (Monochoria vaginalis [7]) | inhibition at 75 g/ha (Scirpus juncoides [8]) | inhibition at 75 g/ha (Digitaria ciliaris) | inhibition at 75 g/ha (Echinochloa crus-galli)

CC(C)[C@]12C[C@@H](OCc3c(F)cccc3F)[C@](C)(CC1C)O2 (stereo partly drawn) [1-111, (1S,2R,4R)-2-((2,6-difluorobenzyl)oxy)-4-isopropyl-1,5-dimethyl-7-oxabicyclo[2.2.1]heptane]
≥ 80%: pest or weed control at 1200 g/ha [1] | pest or weed control at 1200 g/ha (Scirpus juncoides [2]) | inhibition at 1200 g/ha [3] | inhibition at 1200 g/ha (Monochoria vaginalis [4]) | inhibition at 1200 g/ha (Scirpus juncoides [5]) | inhibition at 1200 g/ha (Chenopodium album) | inhibition at 75 g/ha [6] | inhibition at 75 g/ha (Digitaria ciliaris) | inhibition at 75 g/ha (Echinochloa crus-galli)

CC(C)[C@]12C[C@@H](OCc3ccc(F)cc3)[C@](C)(CC1=O)O2 [2-349, (1R,4S,5R)-5-((4-fluorobenzyl)oxy)-1-isopropyl-4-methyl-7-oxabicyclo[2.2.1]heptan-2-one]
≥ 80%: pest or weed control at 1200 g/ha [1] | pest or weed control at 1200 g/ha (Scirpus juncoides [2]) | inhibition at 1200 g/ha [3] | inhibition at 1200 g/ha (Monochoria vaginalis [4]) | inhibition at 1200 g/ha (Amaranthus viridis) | inhibition at 1200 g/ha (Chenopodium album) | inhibition at 75 g/ha [6] | inhibition at 75 g/ha (Digitaria ciliaris) | inhibition at 75 g/ha (Echinochloa crus-galli)

CCC1C[C@]2(C)O[C@@]1(C(C)C)C[C@H]2OCc1ccccc1F (stereo partly drawn) [1-126, (1R,4S,5R)-2-ethyl-5-[(2-fluorobenzyl)oxy]-1-isopropyl-4-methyl-7-oxabicyclo[2.2.1]heptane]
≥ 80%: pest or weed control at 1200 g/ha [1] | pest or weed control at 1200 g/ha (Scirpus juncoides [2]) | inhibition at 1200 g/ha [3] | inhibition at 1200 g/ha (Chenopodium album) | inhibition at 75 g/ha [6] | inhibition at 75 g/ha (Digitaria ciliaris) | inhibition at 75 g/ha (Echinochloa crus-galli)
